One experiment concerns the target T1, AXL (Homo sapiens, UniProt P30530).
T1 construct: endogenous in cells; host or cells: A-172 glioblastoma cells (ATCC #CRL-1620)
T1 sequence (P30530 26-894): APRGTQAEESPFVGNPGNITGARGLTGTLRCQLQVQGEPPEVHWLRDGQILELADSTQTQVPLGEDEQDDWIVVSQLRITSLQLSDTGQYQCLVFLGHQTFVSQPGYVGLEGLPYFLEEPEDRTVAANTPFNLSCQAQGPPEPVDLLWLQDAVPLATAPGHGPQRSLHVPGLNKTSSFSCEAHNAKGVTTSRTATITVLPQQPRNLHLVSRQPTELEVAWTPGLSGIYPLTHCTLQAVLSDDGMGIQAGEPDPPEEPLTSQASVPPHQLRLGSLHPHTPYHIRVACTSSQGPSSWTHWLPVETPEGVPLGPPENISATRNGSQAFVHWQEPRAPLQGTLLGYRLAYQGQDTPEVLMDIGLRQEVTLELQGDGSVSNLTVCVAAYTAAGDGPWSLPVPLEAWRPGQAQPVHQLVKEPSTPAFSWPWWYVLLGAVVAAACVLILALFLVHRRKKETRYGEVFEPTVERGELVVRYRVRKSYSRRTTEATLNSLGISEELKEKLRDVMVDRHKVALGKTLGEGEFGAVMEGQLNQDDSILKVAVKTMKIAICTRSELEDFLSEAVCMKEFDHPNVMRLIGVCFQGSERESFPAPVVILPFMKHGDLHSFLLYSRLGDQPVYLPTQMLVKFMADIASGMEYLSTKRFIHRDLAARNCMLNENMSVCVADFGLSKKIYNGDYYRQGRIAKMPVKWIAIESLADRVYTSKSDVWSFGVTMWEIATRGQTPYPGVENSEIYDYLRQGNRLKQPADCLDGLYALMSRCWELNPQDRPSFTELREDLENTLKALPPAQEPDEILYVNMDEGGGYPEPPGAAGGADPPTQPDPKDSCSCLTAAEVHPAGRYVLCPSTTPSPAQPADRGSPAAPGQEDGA
In words: AXL autophosphorylation ELISA in A-172 cells. The format is cell-based. The note with it: cellular activity, Gas6-stimulated, phospho-AXL ELISA. The procedure, abridged: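 Serum-starved (24 h) A-172 glioblastoma cells got an 8-point compound series (0.3% DMSO) for 1 h, then 1 μg/mL human Gas6 for 15 min. Lysate phospho-AXL quantified by ELISA against phospho-AXL standard, normalized to DMSO and reference-inhibitor controls; IC50 by 4-parameter logistic fit.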
A general note: An ELISA detects its analyte on a solid surface through an enzyme-linked reagent.

In a further experiment the target is Met (Homo sapiens, UniProt P08581). The experiment can be described thus: Met autophosphorylation ELISA in PC-3 cells. The format is cell-based. More on the design: endogenous in cells; host or cells: PC-3 prostate cancer cells (ATCC #CRL-1435). The note with it: cellular activity, HGF-stimulated, phospho-Met ELISA, read-out: c-Met IC50. The procedure, abridged: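 PC-3 cells serum-starved 3 h, treated 1 h with 8-point compound series (0.3% DMSO), then stimulated with 100 ng/mL human HGF for 10 min. Lysate phospho-Met (panTyr) measured by sandwich ELISA; IC50 from 4-parameter logistic fit against DMSO and reference-inhibitor controls.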

The values that follow come from patent US12503438B2, “Compounds for the treatment of kinase-dependent disorders” (Exelixis, Inc., priority 2019, dated 2025).

Sequence of Met (P08581 25-1390): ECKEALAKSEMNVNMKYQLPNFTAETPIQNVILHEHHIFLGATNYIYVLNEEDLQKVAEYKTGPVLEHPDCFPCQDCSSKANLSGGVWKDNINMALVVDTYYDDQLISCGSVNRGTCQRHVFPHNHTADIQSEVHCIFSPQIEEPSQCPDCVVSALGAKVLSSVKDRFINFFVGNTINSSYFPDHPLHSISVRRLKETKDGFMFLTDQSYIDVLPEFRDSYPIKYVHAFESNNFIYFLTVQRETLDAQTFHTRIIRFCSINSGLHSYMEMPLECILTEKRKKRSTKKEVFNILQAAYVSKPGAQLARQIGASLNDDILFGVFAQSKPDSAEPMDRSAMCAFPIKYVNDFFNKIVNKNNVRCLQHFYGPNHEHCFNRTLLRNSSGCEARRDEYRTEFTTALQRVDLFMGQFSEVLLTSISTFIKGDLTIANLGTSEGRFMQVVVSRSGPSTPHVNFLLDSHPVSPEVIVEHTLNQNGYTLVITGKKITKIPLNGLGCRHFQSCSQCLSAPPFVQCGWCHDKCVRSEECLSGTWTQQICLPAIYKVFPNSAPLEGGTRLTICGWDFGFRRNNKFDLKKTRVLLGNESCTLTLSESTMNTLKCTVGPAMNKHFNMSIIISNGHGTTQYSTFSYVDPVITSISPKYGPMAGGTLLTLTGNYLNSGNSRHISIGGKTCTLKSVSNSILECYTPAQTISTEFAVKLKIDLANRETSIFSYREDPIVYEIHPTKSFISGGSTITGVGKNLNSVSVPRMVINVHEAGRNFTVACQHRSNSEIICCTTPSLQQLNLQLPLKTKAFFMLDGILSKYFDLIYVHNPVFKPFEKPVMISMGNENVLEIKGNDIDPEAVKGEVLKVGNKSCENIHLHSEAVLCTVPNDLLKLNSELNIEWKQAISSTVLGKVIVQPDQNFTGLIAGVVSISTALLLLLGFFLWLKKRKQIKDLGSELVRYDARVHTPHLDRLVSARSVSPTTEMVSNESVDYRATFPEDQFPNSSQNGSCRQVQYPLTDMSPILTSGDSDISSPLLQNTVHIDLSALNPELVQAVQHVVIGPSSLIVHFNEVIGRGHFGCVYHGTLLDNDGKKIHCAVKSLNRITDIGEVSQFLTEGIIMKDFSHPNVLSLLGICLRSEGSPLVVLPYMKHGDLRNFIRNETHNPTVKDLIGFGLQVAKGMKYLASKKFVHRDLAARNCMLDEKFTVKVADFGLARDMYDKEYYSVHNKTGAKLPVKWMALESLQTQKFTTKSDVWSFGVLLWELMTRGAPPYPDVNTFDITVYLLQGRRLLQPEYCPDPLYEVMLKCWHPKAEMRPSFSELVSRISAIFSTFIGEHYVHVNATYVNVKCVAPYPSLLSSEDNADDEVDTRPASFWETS

As a reminder, the IC50 is the concentration that inhibits the measured activity by half. Turning to `Cc1cc2c(Oc3ccc(NC(=O)C4(C(=O)Nc5ccc(F)cc5)CC4)cc3)ccnc2cc1-c1cc[nH]n1` [Compound 107, 1-N′-(4-Fluorophenyl)-1-N-[4-[6-methyl-7-(1H-pyrazol-3-yl)quinolin-4-yl]oxyphenyl]cyclopropane-1,1-dicarboxamide], the IC50 lay within 10 to 100 nM at AXL and 100 to 300 nM at Met.
Turning to `Nc1cc(-c2ccc3c(Oc4ccc(NC(=O)C5(C(=O)Nc6ccc(F)cc6)CC5)cc4)ccnc3c2)ccn1` [Compound 97, 1-N-[4-[7-(2-Aminopyridin-4-yl)quinolin-4-yl]oxyphenyl]-1-N′-(4-fluorophenyl)cyclopropane-1,1-dicarboxamide], the 50% inhibitory concentration (IC50) at AXL and at Met was 10 to 100 nM throughout.
With `Cc1cnn(-c2ccc3c(Oc4ccc(NC(=O)C5(C(=O)Nc6ccc(F)cc6)CC5)cc4)ccnc3c2)c1` [Compound 96, 1-N′-(4-Fluorophenyl)-1-N-[4-[7-(4-methylpyrazol-1-yl)quinolin-4-yl]oxyphenyl]cyclopropane-1,1-dicarboxamide], the half-maximal inhibitory concentration (IC50) at AXL is 100 to 300 nM; on Met, 10 to 100 nM.
Taken in the same sequence, the figures for `Cc1ccn(-c2ccc3c(Oc4ccc(NC(=O)C5(C(=O)Nc6ccc(F)cc6)CC5)cc4)ccnc3c2)n1` [Compound 91, 1-N′-(4-Fluorophenyl)-1-N-[4-[7-(3-methylpyrazol-1-yl)quinolin-4-yl]oxyphenyl]cyclopropane-1,1-dicarboxamide] were 100 to 300 nM and 10 to 100 nM.
In the case of `Cc1cc(-c2ccc3c(Oc4ccc(NC(=O)C5(C(=O)Nc6ccc(F)cc6)CC5)cc4)ccnc3c2)n[nH]1` [Compound 99, 1-N′-(4-Fluorophenyl)-1-N-[4-[7-(5-methyl-1H-pyrazol-3-yl)quinolin-4-yl]oxyphenyl]cyclopropane-1,1-dicarboxamide], the IC50 against AXL and on Met was 10 to 100 nM throughout.
Take `Cc1cc2c(Oc3ccc(NC(=O)C4(C(=O)Nc5ccc(F)cc5)CC4)cc3)ccnc2cc1-c1ccn(C)n1` [Compound 108, 1-N′-(4-Fluorophenyl)-1-N-[4-[6-methyl-7-(1-methylpyrazol-3-yl)quinolin-4-yl]oxyphenyl]cyclopropane-1,1-dicarboxamide]: the concentration for half-maximal inhibition (IC50) against AXL lay within 10 to 100 nM; on Met it was 100 to 300 nM.
For the molecule `O=C(Nc1ccc(F)cc1)C1(C(=O)Nc2ccc(Oc3ccnc4cc(C5=CCOC5)ccc34)cc2)CC1` [Compound 95, 1-N-[4-[7-(2,5-Dihydrofuran-3-yl)quinolin-4-yl]oxyphenyl]-1-N′-(4-fluorophenyl)cyclopropane-1,1-dicarboxamide], the concentration for half-maximal inhibition (IC50) against AXL and at Met was 10 to 100 nM throughout.
`O=C(Nc1ccc(F)cc1)C1(C(=O)Nc2ccc(Oc3ccnc4cc(-c5cc6ccccn6n5)ccc34)cc2)CC1` [Compound 104, 1-N′-(4-Fluorophenyl)-1-N-[4-(7-pyrazolo[1,5-a]pyridin-2-ylquinolin-4-yl)oxyphenyl]cyclopropane-1,1-dicarboxamide]: the half-maximal inhibitory concentration (IC50) against AXL and on Met was 100 to 300 nM throughout.
In the case of `Cc1cn(-c2ccc3c(Oc4ccc(NC(=O)C5(C(=O)Nc6ccc(F)cc6)CC5)cc4)ccnc3c2)cn1` [Compound 87, 1-N′-(4-Fluorophenyl)-1-N-[4-[7-(4-methylimidazol-1-yl)quinolin-4-yl]oxyphenyl]cyclopropane-1,1-dicarboxamide], the values for the half-inhibitory concentration (IC50) on AXL and on Met were no more than 10 nM and 10 to 100 nM, respectively.
Taken in the same sequence, the figures for `Nc1n[nH]cc1-c1ccc2c(Oc3ccc(NC(=O)C4(C(=O)Nc5ccc(F)cc5)CC4)cc3)ccnc2c1` [Compound 90, 1-N-[4-[7-(3-Amino-1H-pyrazol-4-yl)quinolin-4-yl]oxyphenyl]-1-N′-(4-fluorophenyl)cyclopropane-1,1-dicarboxamide] were 10 to 100 nM and 10 to 100 nM.
Turning to `O=C(Nc1ccc(F)cc1)C1(C(=O)Nc2ccc(Oc3ccnc4cc(-c5ccn(CF)n5)ccc34)cc2)CC1` [Compound 102, 1-N-[4-[7-[1-(Fluoromethyl)pyrazol-3-yl]quinolin-4-yl]oxyphenyl]-1-N′-(4-fluorophenyl)cyclopropane-1,1-dicarboxamide], the concentration for half-maximal inhibition (IC50) at AXL and at Met was 10 to 100 nM each time.
Consider `O=C(Nc1ccc(F)cc1)C1(C(=O)Nc2ccc(Oc3ccnc4cc(-c5cnn(CF)c5)ccc34)cc2)CC1` [Compound 94, 1-N-[4-[7-[1-(Fluoromethyl)pyrazol-4-yl]quinolin-4-yl]oxyphenyl]-1-N′-(4-fluorophenyl)cyclopropane-1,1-dicarboxamide], for which the results for the half-maximal inhibitory concentration (IC50) against AXL and at Met were no more than 10 nM and 10 to 100 nM, respectively.
In the case of `CC(=O)N1CCC(c2ccc3c(Oc4ccc(NC(=O)C5(C(=O)Nc6ccc(F)cc6)CC5)cc4)ccnc3c2)C1` (stereo not drawn) [Compound 92, 1-N-[4-[7-(1-Acetylpyrrolidin-3-yl)quinolin-4-yl]oxyphenyl]-1-N′-(4-fluorophenyl)cyclopropane-1,1-dicarboxamide], the half-maximal inhibitory concentration (IC50) against AXL and at Met was 10 to 100 nM in each case.
On to `Cc1cc2c(Oc3cc(F)c(NC(=O)C4(C(=O)Nc5ccc(F)cc5)CC4)cc3F)ccnc2cc1-c1cnn(C)c1` [Compound 105, 1-N′-[2,5-Difluoro-4-[6-methyl-7-(1-methylpyrazol-4-yl)quinolin-4-yl]oxyphenyl]-1-N-(4-fluorophenyl)cyclopropane-1,1-dicarboxamide], for which the half-inhibitory concentration (IC50) against AXL and on Met was 10 to 100 nM each time.
Turning to `O=C(Nc1ccc(F)cc1)C1(C(=O)Nc2ccc(Oc3ccnc4cc(-c5ccccc5)ccc34)cc2)CC1` [Compound 55, 1-N′-(4-Fluorophenyl)-1-N-[4-(7-phenylquinolin-4-yl)oxyphenyl]cyclopropane-1,1-dicarboxamide], the half-maximal inhibitory concentration (IC50) at AXL and at Met was 100 to 300 nM in each case.
In the case of `O=C(Nc1ccc(F)cc1)C1(C(=O)Nc2ccc(Oc3ccnc4cc(-c5ccn(C6CC6)n5)ccc34)cc2)CC1` [Compound 98, 1-N-[4-[7-(1-Cyclopropylpyrazol-3-yl)quinolin-4-yl]oxyphenyl]-1-N′-(4-fluorophenyl)cyclopropane-1,1-dicarboxamide], the IC50 against AXL and at Met was 10 to 100 nM each time.
In the case of `Cc1cc(-c2ccc3c(Oc4ccc(NC(=O)C5(C(=O)Nc6ccc(F)cc6)CC5)cc4)ccnc3c2)nn1C` [Compound 101, 1-N-[4-[7-(1,5-Dimethylpyrazol-3-yl)quinolin-4-yl]oxyphenyl]-1-N′-(4-fluorophenyl)cyclopropane-1,1-dicarboxamide], the concentration for half-maximal inhibition (IC50) on AXL and at Met was 10 to 100 nM throughout.
On to `CS(=O)(=O)N1CCC(c2ccc3c(Oc4ccc(NC(=O)C5(C(=O)Nc6ccc(F)cc6)CC5)cc4)ccnc3c2)C1` (stereo not drawn) [Compound 93, 1-N′-(4-Fluorophenyl)-1-N-[4-[7-(1-methylsulfonylpyrrolidin-3-yl)quinolin-4-yl]oxyphenyl]cyclopropane-1,1-dicarboxamide], for which the IC50 was 100 to 300 nM against AXL and 10 to 100 nM at Met.
